# Residues, ends and D or L forms follow the SMILES beside them.
# Legend:
# AdipoR1/p-AMPK signaling = AdipoR1/p-AMPK signaling in mouse brain (immunoblot); type: in vivo; conditions: 5 μg/g, i.p., alternating days for 45 days
# Procedure: (§1) Os-pep was dissolved in double-deionized distilled water and then prepared in normal saline to obtain the final administered concentration. The AβO, APP/PS1, Adipo^−/− and WT mice were injected i.p. with Os-pep at a dosage of 5 μg/g on alternating days for 45 days. WT, Veh-injected transgenic-APP/PS1 and Adipo^−/− mice were injected with the same volume of double-deionized water and normal saline. The WT control and sham mice as well as the Veh-injected AβO, APP/PS1, Adipo^−/− and HFD mice received the same volume of double-deionized distilled water or normal saline.
# (§2) The protein concentrations of the homogenates of mouse brain tissue and cell lysates in vitro were measured using a Bio-Rad protein assay kit (Bio-Rad Laboratories, Hercules, CA), and immunoblotting was performed as we previously described, using primary antibodies (detailed information described in the supplementary Table 1). Western blotting membranes have been cut prior to original western blot images and original western blot images are available at supplementary material.
# p-IRS-1 = experiment: Neuronal insulin resistance (p-IRS-1) in mouse brain, immunoblot; type: in vivo; conditions: AβO-treated, APP/PS1, Adipo−/− and HFD mice, 5 μg/g, i.p., alternating days for 45 days
# Procedure: as §1, §2
# A separate cohort of animals was used to develop the HFD mouse model. Eight-week-old C57BL/6N male mice were bought from Samtako Bio (Republic of Korea). Mice were housed in the university animal housing facility under a 12 h/12 h light/dark cycle at 23°C and 60 ± 10% humidity, with food and water available ad libitum. […]
# p-PI3K/Akt/GSK3β (Ser 9) = experiment: Downstream insulin signaling in mouse brain, immunoblot; type: in vivo; conditions: AβO-treated, APP/PS1 and Adipo−/− mice, 5 μg/g, i.p., alternating days for 45 days
# Procedure: as §1, §2
# Synap and PSD95 = Synap and PSD95 in APPswe/ind-overexpressing SH-SY5Y cells, immunoblot; type: cell-based, human; conditions: Os-pep 10 μM
# Procedure: Human neuroblastoma SH-SY5Y cells were seeded (in 6-well culture plates for immunoblotting and in chamber slides for immunofluorescence) in DMEM (Dulbecco’s modified Eagle medium) containing 10% fetal bovine serum (FBS) and 1% antibiotics (penicillin-streptomycin) and incubated at 37 °C in humidified air containing 5% CO2. Once the cells reached 70–80% confluence, the cells were transfected using the pCAX vector containing the APPswe/ind gene using Lipofectamine 3000 (Life Technologies) according to the provider’s protocols. AdipoR1 siRNA (h) (SC-60123) and AMPK siRNA (h) (SC-45312) (Santa Cruz Biotechnology, Inc.) were used at a concentration of 10 μM per transfection and expressed for 72 h according to the manufacturer’s protocol (Santa Cruz Biotechnology, Inc.). A negative siRNA (Ambion, Thermo Fisher Scientific) was used as a control. Seventy-two hours after the transfections, the cells were exposed to Os-pep (10 μM) for 12 h and then subjected to immunoblotting and immunofluorescence analyses.
# Human neuroblastoma SH-SY5Y cells were treated with 1 µM of insulin for 48 h to produce intrinsic insulin-resistant human neuroblastoma (SH-SY5YIR) cells. […]
# [1] = tested on: hippocampal pyramidal neuronal cells; experiment: Golgi staining, dendritic complexity and spine density of hippocampal CA1 pyramidal neurons; type: in vivo, mouse; conditions: Adipo−/− and AβO mice
# Text: In a separate cohort of studies, we performed Golgi staining and morphological analysis of hippocampal pyramidal neuronal cells and were investigated as accordingly our previous protocol.
structure (smiles),measurement,setting,value
C[C@@H](O)[C@H](NC(=O)[C@@H]1CCCN1C(=O)CNC(=O)[C@H](CS)NC(=O)[C@@H]1CCCN1C(=O)CNC(=O)[C@H](CCC(N)=O)NC(=O)[C@@H](NC(=O)[C@@H](N)CS)[C@@H](C)O)C(=O)O [Os-pep] (H-CTQGPCGPT-OH; N-terminus and C-terminus assumed),"AdipoR1/p-AMPK signaling, AβO-injected mice",AdipoR1/p-AMPK signaling; vs AβO-injected mice without Os-pep,significantly increased AdipoR1/p-AMPK signaling
same,"AdipoR1/p-AMPK signaling, APP/PS1 mice",AdipoR1/p-AMPK signaling; vs Veh-treated APP/PS1,remarkably increased AdipoR1/p-AMPK signaling
same,"AdipoR1/AMPK levels, Adipo−/− mice",AdipoR1/p-AMPK signaling; vs group without Os-pep,significantly increased AdipoR1/AMPK levels
same,p-IRS-1 Ser636/312 levels,p-IRS-1,significantly reducing the increase
same,p-IRS-1 Tyr 632 levels,p-IRS-1,significantly increasing
same,p-PI3K/Akt/GSK3β (Ser 9) levels,p-PI3K/Akt/GSK3β (Ser 9),reversed the reduction
same,Synap and PSD95 expression with AdipoR1 siRNA,Synap and PSD95; APPswe/ind-overexpressing SH-SY5Y cells exposed to AdipoR1 siRNA,did not restore or increase
same,Synap and PSD95 expression,Synap and PSD95; APPswe/ind-overexpressing SH-SY5Y cells,restored and significantly increased
same,total dendritic length,"[1]; 5 μg/g, i.p., alternating days for 45 days",significantly increased the total dendritic length
same,total number of spines and filopodia-like spines,[1]; hippocampal CA1,significantly increased the total number of spines and the number of filopodia-like spines

# Source: PMC8042910, “Adiponectin-mimetic novel nonapeptide rescues aberrant neuronal metabolic-associated memory deficits in Alzheimer’s disease” (Molecular Neurodegeneration, 2021)
